Legend:
histamine [1] = conditions: metabolite of triprolidine in man; known from prior art; cited from earlier work
histamine [2] = experiment: In vitro antihistaminic activity: shift of histamine concentration-response curves in isolated guinea-pig ileum longitudinal muscle (Schild plot); assay type: biochemical, guinea-pigs; conditions: negative log of molar antagonist concentration shifting the control histamine concentration-response curve 2X to the right; tissue incubated one hour with test compound; 60 min
Protocol: A.Invitro antihistaminic activity: The longitudinal muscle was isolated from the intact ileum of guinea-pigs (Harley, male 250-400 g) and placed in an organ bath under 300 mg tension. After one hour of equilibration, cumulative concentration-response curves (Van Rossum, J.M., Arch. Int. Pharmacodyn. Ther. 143 299-330,1963) to histamine were obtained. Following washing, the tissues were incubated for one hour with the test compound and then a second histamine concentration-response curve was run. Shifts to the right of the agonist concentration-response curve produced by the antagonists were used to construct Schild plots (Arunlakshana, O. and Schild, H.O., Br. J. Pharmacol: 14, 48-58, 1959). Regression of Log (dr-1) on Log/B/, where dr is an equiactive response in the presence and absence of antagonist and /B/ is the molar concentration of antagonist, allowed an estimate of pA2, i.e. the negative log of the. concentration of antagonist which shifts the control histamine concentration-response curve 2X to the right.
The antihistaminic activities of compounds of the present invention are detailed in table A below.

Structure (SMILES)	antihistamine activity (histamine [1])	pA2 (histamine [2])
O=C(O)c1ccc(/C(=C\CN2CCCC2)c2ccccn2)cc1 [(E)-1-(4-carboxyphenyl)-1-(2-pyridyl)-3-pyrrolidinoprop-1-ene]	little or no antihistamine activity	–
O=S(=O)(O)c1cccc(/C(=C/CN2CCCC2)c2ccccc2)c1 [Example 2, (E)-3-(1-phenyl-3-pyrrolidinoprop-1-enyl)-benzenesulphonic Acid]	–	7.1
O=S(=O)(O)c1cccc(C(CCN2CCCC2)c2ccccc2)c1 (stereo not shown) [Example 3, 3-(1-phenyl-3-pyrrolidinopropyl) benzenesulphonic acid]	–	7.3
Cc1ccc(/C(=C\CN2CCCC2)c2cccc(/C=C/c3nnn[nH]3)n2)cc1 [Example 1, 5-(E-6-[3-pyrrolidino-1-(4-tolyl)prop-1E-enyl]-2-pyridylvinyl)-1H-tetrazole]	–	8.7
